This passage reports MIC and IC50 results from patent US20260250312A1, “ANTIBACTERIAL COMPOUNDS ELIMINATING DORMANT BACTERIAL CELLS” (UNIVERSITÉ D'AIX-MARSEILLE, priority 2022, published 2026).

Where “and” joins values, the source holds several entries; their conditions need not be identical. Equal values may be shown once.

In assay [1] the test system is Pseudomonas aeruginosa (ATCC27853). Description: Microdilution MIC assay (CLSI-based), P. aeruginosa. In kind it is cell-based. The following applies: Pseudomonas aeruginosa, ATCC27853, 20 h, 20 hours incubation at 35-37° C., MHB; read-out: Minimum inhibitory concentration P. aeruginosa ATCC27853. On the procedure: (§1) The antibacterial activity of compounds was measured using a standard microdilution assay based on the Clinical and Laboratory Standards Institute (CLSI) guidelines. This method was slightly modified. Indeed, assay volumes were increased to 200 μL to improve reproducibility. The chemical compounds to be tested were in the form of salts for biological testing.
(§2) Bacteria tested: Antibacterial activities of the compounds were tested on Staphylococcus aureus (ATCC25923), Enterococcus faecalis (ATCC29212), Escherichia coli ([…]) and Pseudomonas aeruginosa (ATCC27853).
(§3) Preparation of the Preculture: Mueller Hinton Agar plates were inoculated with frozen biological strain in order to obtain separate colonies and the plates were incubated during 24 h at 35-37° C. 3 colonies of similar aspect were picked out, resuspended in 5 mL of fresh Mueller Hinton broth 1× (MHB) and incubated with shaking (160 rpm) at 35-37° C. overnight.
(§4) 0.1 mL of bacteria in exponential phase were suspended in 9.9 mL of MHB (1:100 dilution). 0.1 mL of the 1:100 dilution were dispensed into the wells of microplates containing 0.1 ml of serial compounds dilutions to yield ca. 5×10^5 CFU/mL. In parallel, the stocks solutions of chemical compounds were first diluted in appropriate solvent to a final concentration of 5 mg/mL. 8 μL were dispended into the first wells of the microplates containing 0.1 ml of sterile broth and a 0.5 cascade dilution was performed in MHB from 0.2 mg/mL. One control was made for each strain tested. […] Tests were performed in triplicate.
(§5) Reading of the Results: After incubation, the filter was replaced with a transparent film, and an optical density reading was then taken in an iEMS plate spectrophotometer at 620 nm. Calculation of the minimum inhibitory concentration (MIC) was performed.

Assay [2] relates to Enterococcus faecalis (ATCC29212). Briefly: Microdilution MIC assay (CLSI-based), E. faecalis. In kind it is cell-based. The conditions noted are these: Enterococcus faecalis, ATCC29212, 20 h, 20 hours incubation at 35-37° C., MHB; read-out: Minimum inhibitory concentration E. faecalis ATCC29212. The procedure: as §1, §2, §3, §4, §5
For orientation: Broth dilution looks for growth in wells or tubes with falling amounts of substance.

Assay [3] deals with Staphylococcus aureus (ATCC25923). Briefly: Microdilution MIC assay (CLSI-based), S. aureus. Format: cell-based. The following applies: Staphylococcus aureus, ATCC25923, 20 h, 20 hours incubation at 35-37° C., MHB; read-out: Minimum inhibitory concentration S. aureus ATCC25923. On the procedure:
as §1, §2, §3, §4, §5

The test system of another assay is CHO-K1 cells. Briefly: WST1 cytotoxicity test. Format: cell-based, Chinese hamster. The conditions noted are these: Cricetulus griseus, CHO-K1, 24 h, WST1, 24 hours at 37° C.; read-out: IC50 CHO. An excerpt: Cytotoxicity: The test WST1 was used to measure the cytotoxic activity of the compounds of the invention. The test WST1 is a colorimetric test allowing to measure the viability and the degree of cell proliferation. It is based on cleavage of the colorless tetrazolium salts WST-1 (4—[3-(4-iodophenyl)-2-(4-nitrophenyl)-2H-5-tetrazolio]-1,3-benzene disulfonate) with mitochondrial dehydrogenases to the yellow-colored formazan derivative, which may be quantified by spectrophotometry at 420-480 nm. The WST1 test was performed on Chinese hamster ovary (CHO) cells. The CHO-K1 cells (ATCC, USA) were kept in culture in McCoy's 5A medium supplemented with 10% fetal calf serum, 2 mM of L-glutamine and a mixture of penicillin-streptomycin (100 U/ml: 10 μg/mL). The culture was incubated at 37° C. under an atmosphere enriched in CO2 (5%), and subcultured every two days. The cells were transferred into 96-well plates (25,000 cells/mL) in whole McCoy's 5A medium, and maintained for 24 hours at 37° C. under a humid atmosphere enriched in CO2 (5%). Increasing concentrations of tested compounds were added to the wells, each compound was tested in replicates and 8 growth controls containing the cells in the medium alone were included in each series of tests. After 24 hours at 37° C. (5% CO2), the culture medium was removed, the cells were rinsed in phosphate buffer (PBS) and 50 μL of PBS containing 10% of reagent WST1 were added to each well. After 20 minutes of incubation at 37° C., the results were read by spectrophotometry at 450 nm. The results are expressed in dose-response relationships, modeled by nonlinear regression analysis using the TableCurve software.
Cytotoxicity: The same WST1 test as described in Example 2 above was used.
(In general: Tetrazolium dyes change colour on reduction, which living cells bring about.)

The subject of assay [4] is Escherichia coli (ATCC28922). Briefly: Microdilution MIC assay (CLSI-based), E. coli. In kind it is cell-based. The following applies: Escherichia coli, ATCC28922, 20 h, 20 hours incubation at 35-37° C., MHB; read-out: Minimum inhibitory concentration E. coli ATCC28922. On the procedure: as §1, §2, §3, §4, §5

`COC(=O)[C@H](Cc1ccccc1)NC(=O)CC[C@@H](C)[C@H]1CCC2C3C(CC[C@@]21C)[C@@]1(C)CC[C@H](NCCN)C[C@H]1C[C@H]3O` (stereo partly drawn) [Compound S015, methyl ((4R)-4-((3S,5S,7R,10S,13R,17R)-3-((2-aminoethyl)amino)-7-hydroxy-10,13-dimethylhexadecahydro-1H-cyclopenta[a]phenanthren-17-yl)pentanoyl)-L-phenylalaninate]: the MIC is 50 µM and 32 µg/mL in assay [1]; 12.5 µM and 8 µg/mL in assay [2]; 12.5 µM and 8 µg/mL in assay [3]; 12.5 µM and 8 µg/mL in assay [4]. For the same molecule, the IC50 – broadly, the concentration needed to halve the response being measured – with CHO-K1 cells was > 250 µM and > 149 µg/mL.
As to `COC(=O)[C@H](Cc1ccccc1)NC(=O)CC[C@@H](C)[C@H]1CCC2C3C(CC[C@@]21C)[C@@]1(C)CC[C@H](NCCCN)C[C@H]1C[C@H]3O` (stereo partly drawn) [Compound S016, methyl ((4R)-4-((3S,5S,7R,10S,13R,17R)-3-((3-aminopropyl)amino)-7-hydroxy-10,13-dimethylhexadecahydro-1H-cyclopenta[a]phenanthren-17-yl)pentanoyl)-L-phenylalaninate], the MIC in assay [1] is 50 µM and 32 µg/mL; in assay [2], 25 µM and 16 µg/mL; in assay [3], 12.5 µM and 8 µg/mL; in assay [4], 25 µM and 16 µg/mL. Also, the IC50 in the assay with CHO-K1 cells is 66 µM and 40.2 µg/mL.
As to `COC(=O)[C@H](NC(=O)CC[C@@H](C)[C@H]1CCC2C3C(CC[C@@]21C)[C@@]1(C)CC[C@H](NCCCN)C[C@H]1C[C@H]3O)C(C)C` (stereo partly drawn) [Compound S018, methyl ((4R)-4-((3S,5S,7R,10S,13R,17R)-3-((3-aminopropyl)amino)-7-hydroxy-10,13-dimethylhexadecahydro-1H-cyclopenta[a]phenanthren-17-yl)pentanoyl)-D-valinate], the MIC is 200 µM and 128 µg/mL in assay [1]; 100 µM and 64 µg/mL in assay [2]; 50 µM and 32 µg/mL in assay [3]; 200 µM and 128 µg/mL in assay [4]. Moreover, in the assay with CHO-K1 cells, the IC50 was 10.9 µM and 6.1 µg/mL.
For the molecule `COC(=O)[C@H](NC(=O)CC[C@@H](C)[C@H]1CCC2C3C(CC[C@@]21C)[C@@]1(C)CC[C@H](NCCNCCN)C[C@H]1C[C@H]3O)C(C)C` (stereo partly drawn) [Compound S020, methyl ((4R)-4-((3S,5S,7R,10S,13R,17R)-3-((2-((2-aminoethyl)amino)ethyl)amino)-7-hydroxy-10,13-dimethylhexadecahydro-1H-cyclopenta[a]phenanthren-17-yl)pentanoyl)-D-valinate], the MIC in assay [1] was > 200 µM and > 128 µg/mL; in assay [2], > 200 µM and > 128 µg/mL; in assay [3], 100 µM and 64 µg/mL; in assay [4], 100 µM and 64 µg/mL. Also, in the assay with CHO-K1 cells, the IC50 was 17.2 µM and 10.2 µg/mL.
Consider `COC(=O)[C@@H](Cc1ccccc1)NC(=O)CC[C@@H](C)[C@H]1CCC2C3C(CC[C@@]21C)[C@@]1(C)CC[C@H](NCCCNCCCNCCCN)C[C@H]1C[C@H]3O` (stereo partly drawn) [Compound S022, methyl ((4R)-4-((3S,5S,7R,10S,13R,17R)-3-((3-((3-((3-aminopropyl)amino)propyl)amino)propyl)amino)-7-hydroxy-10,13-dimethylhexadecahydro-1H-cyclopenta[a]phenanthren-17-yl)pentanoyl)-D-phenylalaninate], for which the MIC in assay [1] is 12.5 µM and 8 µg/mL; in assay [2], 25 µM and 16 µg/mL; in assay [3] it was 12.5 µM and 8 µg/mL; in assay [4], 12.5 µM and 8 µg/mL. The IC50 in the assay with CHO-K1 cells was 17.1 µM and 12.4 µg/mL.
Regarding `COC(=O)[C@H](NC(=O)CC[C@@H](C)[C@H]1CCC2C3C(CC[C@@]21C)[C@@]1(C)CC[C@H](NCCCCCCN)C[C@H]1C[C@H]3O)C(C)C` (stereo partly drawn) [Compound S023, methyl ((4R)-4-((3S,5S,7R,10S,13R,17R)-3-((6-aminohexyl)amino)-7-hydroxy-10,13-dimethylhexadecahydro-1H-cyclopenta[a]phenanthren-17-yl)pentanoyl)-D-valinate], the MIC in assay [1] was > 200 µM and > 120 µg/mL; in assay [2], 100 µM and 64 µg/mL; in assay [3] it was 50 µM and 32 µg/mL; in assay [4] it was 100 µM and 64 µg/mL. Besides, the IC50 in the assay with CHO-K1 cells is 48.5 µM and 29.3 µg/mL.
In the case of `COC(=O)[C@H](Cc1ccccc1)NC(=O)CC[C@@H](C)[C@H]1CCC2C3C(CC[C@@]21C)[C@@]1(C)CC[C@H](NCCNCCN)C[C@H]1C[C@H]3O` (stereo partly drawn) [Compound S024, methyl ((4R)-4-((3S,5S,7R,10S,13R,17R)-3-((2-((2-aminoethyl)amino)ethyl)amino)-7-hydroxy-10,13-dimethylhexadecahydro-1H-cyclopenta[a]phenanthren-17-yl)pentanoyl)-L-phenylalaninate], the MIC is 100 µM and 64 µg/mL in assay [1]; 25 µM and 16 µg/mL in assay [2]; 25 µM and 16 µg/mL in assay [3]; 25 µM and 16 µg/mL in assay [4]. For the same molecule, the concentration for half-maximal inhibition (IC50) in the assay with CHO-K1 cells was 83.7 µM and 53.5 µg/mL.
As for `COC(=O)[C@H](Cc1ccccc1)NC(=O)CC[C@@H](C)[C@H]1CCC2C3C(CC[C@@]21C)[C@@]1(C)CC[C@H](NCCCN2CCN(CCCN)CC2)C[C@H]1C[C@H]3O` (stereo partly drawn) [Compound S025, methyl ((4R)-4-((3S,5S,7R,10S,13R,17R)-3-((3-(4-(3-aminopropyl)piperazin-1-yl)propyl)amino)-7-hydroxy-10,13-dimethylhexadecahydro-1H-cyclopenta[a]phenanthren-17-yl)pentanoyl)-L-phenylalaninate], the MIC in assay [1] was 100 µM and 64 µg/mL; in assay [2] it was 25 µM and 16 µg/mL; in assay [3], 25 µM and 16 µg/mL; in assay [4], 25 µM and 16 µg/mL. In the assay on CHO-K1 cells, the IC50 is 3.7 µM and 2.72 µg/mL.
`COC(=O)[C@@H](NC(=O)CC[C@@H](C)[C@H]1CCC2C3C(CC[C@@]21C)[C@@]1(C)CC[C@H](NCCCN(C)CCCN)C[C@H]1C[C@H]3O)C(C)C` (stereo partly drawn) [Compound S026, methyl ((4R)-4-((3S,5S,7R,10S,13R,17R)-3-((3-((3-aminopropyl)(methyl)amino)propyl)amino)-7-hydroxy-10,13-dimethylhexadecahydro-1H-cyclopenta[a]phenanthren-17-yl)pentanoyl)-L-valinate]: the MIC is 200 µM and 126 µg/mL in assay [1]; 50 µM and 32 µg/mL in assay [2]; 25 µM and 16 µg/mL in assay [3]; 25 µM and 16 µg/mL in assay [4]. In addition, in the assay on CHO-K1 cells, the IC50 is 11.4 µM and 7.2 µg/mL.
